Experimental data from ChEMBL document CHEMBL1201862, “PubChem BioAssay data set” (2004).
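48-hour exposure; five concentrations; linearly interpolated endpoints. At the GI50, growth is halved.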 Calls of active or inactive are those of the source. No stated cut-off is given here; in the data, active = GI50 up to about 1.1 µM and inactive = higher.

Experiments:
Assay in all cases: NCI anticancer screen, dose series, 48 h
A498 = tested on: A498
SK-MEL-5 = tested on: SK-MEL-5
MDA-MB-435 = tested on: MDA-MB-435
EKVX = tested on: EKVX
DMS-273 = tested on: DMS-273
KM-20L2 = tested on: KM-20L2
SF-268 = tested on: SF-268
MOLT-4 = tested on: MOLT-4
NCI-H522 = tested on: NCI-H522
PC-3 = tested on: PC-3
U-251 = tested on: U-251
SK-MEL-2 = tested on: SK-MEL-2
UACC-62 = tested on: UACC-62
HCT-116 = tested on: HCT-116
RPMI-8226 = tested on: RPMI-8226
HCC 2998 = tested on: HCC 2998
OVCAR-4 = tested on: OVCAR-4
T47D = tested on: T47D
OVCAR-8 = tested on: OVCAR-8
HCT-15 = tested on: HCT-15

## O=C(CCl)Nc1ccc(C(=O)N/N=C/c2ccc(Cl)cc2)cc1
A498
  GI50: 2.21 µM (inactive)
SK-MEL-5
  GI50: 5.77 µM (inactive)
MDA-MB-435
  GI50: 1.82 µM (inactive)
EKVX
  GI50: 2.19 µM (inactive)
DMS-273
  GI50: 2 µM (inactive)
KM-20L2
  GI50: 11.9 µM (inactive)
SF-268
  GI50: 2.07 µM (inactive)
MOLT-4
  GI50: 1.9 µM (inactive)
NCI-H522
  GI50: 1.75 µM (inactive)
PC-3
  GI50: 2.02 µM (inactive)
U-251
  GI50: 1.78 µM (inactive)
SK-MEL-2
  GI50: 5.58 µM (inactive)
UACC-62
  GI50: 3.56 µM (inactive)
HCT-116
  GI50: 1.8 µM (inactive)
RPMI-8226
  GI50: 2.42 µM (inactive)
HCC 2998
  GI50: 9.33 µM (inactive)
OVCAR-4
  GI50: 2.09 µM (inactive)
T47D
  GI50: 2.51 µM (inactive)
OVCAR-8
  GI50: 2.29 µM (inactive)
HCT-15
  GI50: 4.63 µM

## COc1c(OC(C)=O)cc2c(OC(C)=O)c1CC(C)CC(OC)C(O)C(C)/C=C(\C)C(OC(N)=O)C(OC)/C=C\C=C(/C)C(=O)N2 (stereo not given)
A498
  GI50: > 100 µM (inactive)
SK-MEL-5
  GI50: > 100 µM (inactive)
EKVX
  GI50: > 100 µM (inactive)
DMS-273
  GI50: > 70.1 µM (inactive)
KM-20L2
  GI50: > 62.1 µM (inactive)
SF-268
  GI50: > 100 µM (inactive)
MOLT-4
  GI50: > 27 µM (inactive)
NCI-H522
  GI50: 10.7 µM (inactive)
U-251
  GI50: > 100 µM (inactive)
SK-MEL-2
  GI50: > 100 µM (inactive)
UACC-62
  GI50: > 100 µM (inactive)
HCT-116
  GI50: > 55.5 µM (inactive)
RPMI-8226
  GI50: > 54.5 µM (inactive)
HCC 2998
  GI50: 36.5 µM (inactive)
OVCAR-4
  GI50: > 100 µM (inactive)
OVCAR-8
  GI50: > 65 µM (inactive)
HCT-15
  GI50: > 64.7 µM

## O=[N+]([O-])c1ccc(Cl)c(C2CC(c3cccc4ccccc34)=Nc3ccccc3[S+]2[O-])c1 (stereo not given)
A498
  GI50: 24.2 µM (inactive)
SK-MEL-5
  GI50: 14.4 µM (inactive)
EKVX
  GI50: > 57.5 µM (inactive)
DMS-273
  GI50: 19.2 µM (inactive)
KM-20L2
  GI50: 20.2 µM (inactive)
SF-268
  GI50: 18.4 µM (inactive)
MOLT-4
  GI50: 3.68 µM (inactive)
NCI-H522
  GI50: 7.23 µM (inactive)
U-251
  GI50: 13.1 µM (inactive)
SK-MEL-2
  GI50: 15.1 µM (inactive)
UACC-62
  GI50: 10.6 µM (inactive)
HCT-116
  GI50: 9.73 µM (inactive)
RPMI-8226
  GI50: 2.21 µM (inactive)
HCC 2998
  GI50: 14.8 µM (inactive)
OVCAR-4
  GI50: 22 µM (inactive)
OVCAR-8
  GI50: 8.77 µM (inactive)
HCT-15
  GI50: 13.6 µM

## Cc1cc(C)c(C(=O)O)c(N)c1O
A498
  GI50: > 100 µM (inactive)
SK-MEL-5
  GI50: > 100 µM (inactive)
EKVX
  GI50: > 100 µM (inactive)
DMS-273
  GI50: > 100 µM (inactive)
KM-20L2
  GI50: > 100 µM (inactive)
SF-268
  GI50: > 100 µM (inactive)
MOLT-4
  GI50: > 100 µM (inactive)
NCI-H522
  GI50: > 100 µM (inactive)
U-251
  GI50: > 100 µM (inactive)
SK-MEL-2
  GI50: > 100 µM (inactive)
UACC-62
  GI50: > 100 µM (inactive)
HCT-116
  GI50: > 100 µM (inactive)
RPMI-8226
  GI50: > 100 µM (inactive)
HCC 2998
  GI50: > 100 µM (inactive)
OVCAR-4
  GI50: > 100 µM (inactive)
OVCAR-8
  GI50: > 100 µM (inactive)
HCT-15
  GI50: > 100 µM

## COc1cc(C2=NN(C)C(c3ccc([N+](=O)[O-])o3)C2)cc(OC)c1OC (stereo not given)
A498
  GI50: > 100 µM (inactive)
SK-MEL-5
  GI50: > 100 µM (inactive)
EKVX
  GI50: > 100 µM (inactive)
DMS-273
  GI50: > 100 µM (inactive)
KM-20L2
  GI50: > 100 µM (inactive)
SF-268
  GI50: > 100 µM (inactive)
MOLT-4
  GI50: 24 µM (inactive)
NCI-H522
  GI50: 43.7 µM (inactive)
U-251
  GI50: 56.8 µM (inactive)
SK-MEL-2
  GI50: > 100 µM (inactive)
UACC-62
  GI50: 83.2 µM (inactive)
HCT-116
  GI50: 48.8 µM (inactive)
RPMI-8226
  GI50: 1.78 µM (inactive)
HCC 2998
  GI50: > 100 µM (inactive)
OVCAR-4
  GI50: 91.4 µM (inactive)
OVCAR-8
  GI50: > 100 µM (inactive)
HCT-15
  GI50: 18.2 µM

## CC(C)(C)c1nc2c(o1)/C(=N\c1ccccc1)c1ccccc1C2=O
A498
  GI50: 17.5 µM (inactive)
SK-MEL-5
  GI50: 1.42 µM (inactive)
EKVX
  GI50: 13 µM (inactive)
DMS-273
  GI50: 3.71 µM (inactive)
KM-20L2
  GI50: 27.8 µM (inactive)
SF-268
  GI50: 3.55 µM (inactive)
MOLT-4
  GI50: 3.95 µM (inactive)
NCI-H522
  GI50: 2.91 µM (inactive)
U-251
  GI50: 3.85 µM (inactive)
SK-MEL-2
  GI50: 2.53 µM (inactive)
UACC-62
  GI50: 2.17 µM (inactive)
HCT-116
  GI50: 3.23 µM (inactive)
RPMI-8226
  GI50: 3.94 µM (inactive)
HCC 2998
  GI50: 18.6 µM (inactive)
OVCAR-4
  GI50: 2.74 µM (inactive)
OVCAR-8
  GI50: 2.72 µM (inactive)
HCT-15
  GI50: 4.25 µM
